# Source: patent publication US6579705B2, “Process for preparing non-proteinogenic L-amino acids” (Consortium fur Elektrochemische Industrie GmbH, priority 2001, dated 2003)
# B1: CysK: Escherichia coli O-acetyl-L-serine sulfhydrylase with C-terminal StrepTagII, purified by affinity chromatography (protein, UniProt P0ABK5 2-323, looked up)
# Cysteine synthase A: SKIFEDNSLTIGHTPLVRLNRIGNGRILAKVESRNPSFSVKCRIGANMIWDAEKRGVLKPGVELVEPTSGNTGIALAYVAAARGYKLTLTMPETMSIERRKLLKALGANLVLTEGAKGMKGAIQKAEEIVASNPEKYLLLQQFSNPANPEIHEKTTGPEIWEDTDGQVDVFIAGVGTGGTLTGVSRYIKGTKGKTDLISVAVEPTDSPVIAQALAGEEIKPGPHKIQGIGAGFIPANLDLKLVDKVIGITNEEAISTARRLMEEEGILAGISSGAAVAAALKLQEDESFTNKNIVVILPSSGERYLSTALFADLFTEKELQQ
# B2: CysM: Escherichia coli O-acetyl-L-serine sulfhydrylase with C-terminal StrepTagII, purified by affinity chromatography (protein, UniProt P16703 1-303, looked up)
# Cysteine synthase B: MSTLEQTIGNTPLVKLQRMGPDNGSEVWLKLEGNNPAGSVKDRAALSMIVEAEKRGEIKPGDVLIEATSGNTGIALAMIAALKGYRMKLLMPDNMSQERRAAMRAYGAELILVTKEQGMEGARDLALEMANRGEGKLLDQFNNPDNPYAHYTTTGPEIWQQTGGRITHFVSSMGTTGTITGVSRFMREQSKPVTIVGLQPEEGSSIPGIRRWPTEYLPGIFNASLVDEVLDIHQRDAENTMRELAVREGIFCGVSSGGAVAGALRVAKANPDAVVVAIICDRGDRYLSTGVFGEEHFSQGAGI
# What was measured:
# [1] = biological target: T1, O-acetyl-L-serine sulfhydrylase CysK (Escherichia coli, UniProt P0ABK5); type: biochemical; details: pH 7
# T1 construct: StrepTagII (WSHPQFEK) (C); made in house; host or cells: E. coli BLR21(DE3) carrying pLE4 (T7 promoter, pRSET5a)
# T1 sequence (P0ABK5 whole entry, looked up): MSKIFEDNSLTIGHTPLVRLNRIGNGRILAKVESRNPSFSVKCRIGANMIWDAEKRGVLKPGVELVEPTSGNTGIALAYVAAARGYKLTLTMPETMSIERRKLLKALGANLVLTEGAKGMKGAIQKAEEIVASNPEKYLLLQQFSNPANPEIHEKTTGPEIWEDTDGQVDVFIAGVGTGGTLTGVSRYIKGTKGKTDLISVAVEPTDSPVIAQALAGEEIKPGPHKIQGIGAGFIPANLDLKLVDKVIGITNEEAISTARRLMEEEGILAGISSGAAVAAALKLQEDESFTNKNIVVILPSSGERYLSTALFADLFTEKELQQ
# Procedure: (§1) In order to use the O-acetyl-L-serine sulfhydrylases to prepare non-proteinogenic amino acids, other nucleophilic compounds were used in the reaction in place of sulfide or thiosulfate. In order to detect them, a precolumn derivatization for amino acids was carried out using ortho-phthaldialdehyde. Using this method, it was possible to carry out a broad screening for suitable nucleophilic substrates.
# (§2) The mixtures contained 4 mM O-acetyl-L-serine (added from a 200 mM stock solution in 500 mM Nasuccinate buffer, pH 5.5), 20 mM nucleophilic compound, 100 mM K phosphate buffer, pH 7.0, and 5 μg of purified enzyme/ml. The reaction was stopped with 1/100th the volume of acetic acid (96% v/v) and analyzed by HPLC using a HP aminoquant column (200 mm×2.1 mm) in accordance with the manufacturer's instructions supplied by Hewlett Packard, Waldbronn, Germany.
# [2] = biological target: T2, O-acetyl-L-serine sulfhydrylase CysM (Escherichia coli, UniProt P16703); type: biochemical; details: pH 7
# T2 construct: StrepTagII (WSHPQFEK) (C); made in house; host or cells: E. coli DH5alpha carrying pFL145 (tet promoter, pASK-IBA3)
# Procedure: as §1, §2
# [3] = cited from earlier work
# [4] = type: biochemical, Escherichia coli; details: 10 mM O-acetyl-serine, pH 7.0, 37° C., 5 μg purified enzyme/ml; for specific activity Acys (formation of cysteine using sulfide): 10 mM sodium sulfide
# Procedure: The activity of O-acetyl-L-serine sulfhydrylases is measured by detecting the “natural” reaction product L-cysteine (Cys) or alternatively, in the case of CysM, also by detecting the reaction product as S-sulfo-L-cysteine (S-Cys). Both products can be detected very specifically and very sensitively using the test described by Gaitonde (1967, Biochem. J. 104: 627-633).
# A typical test mixture contained 10 mM O-acetyl-serine (added from a 200 mM stock solution in 500 mM sodium succinate buffer, pH 5.5), 10 mM sodium sulfide or sodium thiosulfate, 100 mM potassium phosphate buffer, pH 7.0, and 5 μg of purified enzyme/ml, and is incubated at 37° C. The specific activity, A, is given in units/mg of protein, i.e. in μmol of product×min^−1×mg^−1 of protein. Acys denotes the specific activity of the formation of cysteine using sulfide. AS-Cys denotes the specific activity of the formation of S-sulfocysteine using thiosulfate. The specific activities using the proteins isolated in example 2 were: […]
molecule,measurement,setting,value
"1,2-Pyrazole",CysK conversion,[1],++ (key: +++: conversion greater than 70% after 30 min; ++: conversion greater than 40% after 30 min; +: conversion greater than 10% after 30 min; −: conversion less than 5% after 30 min)
same,CysM conversion,[2],++ (key: +++: conversion greater than 70% after 30 min; ++: conversion greater than 40% after 30 min; +: conversion greater than 10% after 30 min; −: conversion less than 5% after 30 min)
Nc1nc2nn[nH]c2c(=O)[nH]1 [8-Azaguanine],CysK conversion,[1],− (key: +++: conversion greater than 70% after 30 min; ++: conversion greater than 40% after 30 min; +: conversion greater than 10% after 30 min; −: conversion less than 5% after 30 min)
same,CysM conversion,[2],+ (key: +++: conversion greater than 70% after 30 min; ++: conversion greater than 40% after 30 min; +: conversion greater than 10% after 30 min; −: conversion less than 5% after 30 min)
Sc1nccs1 [2-Mercaptothiazole],CysK conversion,[1],++ (key: +++: conversion greater than 70% after 30 min; ++: conversion greater than 40% after 30 min; +: conversion greater than 10% after 30 min; −: conversion less than 5% after 30 min)
same,CysM conversion,[2],+++ (key: +++: conversion greater than 70% after 30 min; ++: conversion greater than 40% after 30 min; +: conversion greater than 10% after 30 min; −: conversion less than 5% after 30 min)
Sc1ccccc1 [Thiophenol],CysK conversion,[1],++ (key: +++: conversion greater than 70% after 30 min; ++: conversion greater than 40% after 30 min; +: conversion greater than 10% after 30 min; −: conversion less than 5% after 30 min)
same,CysM conversion,[2],+++ (key: +++: conversion greater than 70% after 30 min; ++: conversion greater than 40% after 30 min; +: conversion greater than 10% after 30 min; −: conversion less than 5% after 30 min)
[N-]=[N+]=[N-].[Na+] [Sodium azide],CysK conversion,[1],+++ (key: +++: conversion greater than 70% after 30 min; ++: conversion greater than 40% after 30 min; +: conversion greater than 10% after 30 min; −: conversion less than 5% after 30 min)
same,CysM conversion,[2],+++ (key: +++: conversion greater than 70% after 30 min; ++: conversion greater than 40% after 30 min; +: conversion greater than 10% after 30 min; −: conversion less than 5% after 30 min)
"c1nc[nH]n1 [1,2,4-Triazole]",CysK conversion,[1],+++ (key: +++: conversion greater than 70% after 30 min; ++: conversion greater than 40% after 30 min; +: conversion greater than 10% after 30 min; −: conversion less than 5% after 30 min)
same,CysM conversion,[2],++ (key: +++: conversion greater than 70% after 30 min; ++: conversion greater than 40% after 30 min; +: conversion greater than 10% after 30 min; −: conversion less than 5% after 30 min)
OCCS [Mercaptoethanol],CysK conversion,[1],+++ (key: +++: conversion greater than 70% after 30 min; ++: conversion greater than 40% after 30 min; +: conversion greater than 10% after 30 min; −: conversion less than 5% after 30 min)
same,CysM conversion,[2],+++ (key: +++: conversion greater than 70% after 30 min; ++: conversion greater than 40% after 30 min; +: conversion greater than 10% after 30 min; −: conversion less than 5% after 30 min)
[SeH2] [Sodium selenide],CysK conversion,[1],+++ (key: +++: conversion greater than 70% after 30 min; ++: conversion greater than 40% after 30 min; +: conversion greater than 10% after 30 min; −: conversion less than 5% after 30 min)
same,CysM conversion,[2],+++ (key: +++: conversion greater than 70% after 30 min; ++: conversion greater than 40% after 30 min; +: conversion greater than 10% after 30 min; −: conversion less than 5% after 30 min)
CC(=O)OC[C@H](N)C(=O)O [O-Acetyl-L-serine],stability toward isomerization,[3]; pH 4.0,stable
same,rate of isomerization to N-acetyl-L-serine,[3]; pH 7.6,1 %×min^−1
[SeH]c1ccccc1 [Phenylselenol],CysK conversion,[1],++ (key: +++: conversion greater than 70% after 30 min; ++: conversion greater than 40% after 30 min; +: conversion greater than 10% after 30 min; −: conversion less than 5% after 30 min)
same,CysM conversion,[2],+++ (key: +++: conversion greater than 70% after 30 min; ++: conversion greater than 40% after 30 min; +: conversion greater than 10% after 30 min; −: conversion less than 5% after 30 min)
"Sc1nc[nH]n1 [3 Mercapto-1,2,4-triazole]",CysK conversion,[1],+ (key: +++: conversion greater than 70% after 30 min; ++: conversion greater than 40% after 30 min; +: conversion greater than 10% after 30 min; −: conversion less than 5% after 30 min)
same,CysM conversion,[2],+++ (key: +++: conversion greater than 70% after 30 min; ++: conversion greater than 40% after 30 min; +: conversion greater than 10% after 30 min; −: conversion less than 5% after 30 min)
"c1ccc2[nH]nnc2c1 [1,2,3-Benzotriazole]",CysK conversion,[1],++ (key: +++: conversion greater than 70% after 30 min; ++: conversion greater than 40% after 30 min; +: conversion greater than 10% after 30 min; −: conversion less than 5% after 30 min)
same,CysM conversion,[2],+ (key: +++: conversion greater than 70% after 30 min; ++: conversion greater than 40% after 30 min; +: conversion greater than 10% after 30 min; −: conversion less than 5% after 30 min)
O[C@@H](CS)[C@@H](O)CS (racemic) [Dithiothreithol],CysK conversion,[1],+++ (key: +++: conversion greater than 70% after 30 min; ++: conversion greater than 40% after 30 min; +: conversion greater than 10% after 30 min; −: conversion less than 5% after 30 min)
same,CysM conversion,[2],+++ (key: +++: conversion greater than 70% after 30 min; ++: conversion greater than 40% after 30 min; +: conversion greater than 10% after 30 min; −: conversion less than 5% after 30 min)
"c1nn[nH]n1 [1,2,3,4-Tetrazole]",CysK conversion,[1],+++ (key: +++: conversion greater than 70% after 30 min; ++: conversion greater than 40% after 30 min; +: conversion greater than 10% after 30 min; −: conversion less than 5% after 30 min)
same,CysM conversion,[2],++ (key: +++: conversion greater than 70% after 30 min; ++: conversion greater than 40% after 30 min; +: conversion greater than 10% after 30 min; −: conversion less than 5% after 30 min)
"O=c1[nH]oc(=O)[nH]1 [1,2,4-Oxadiazolidine-3,5-dione]",CysK conversion,[1],− (key: +++: conversion greater than 70% after 30 min; ++: conversion greater than 40% after 30 min; +: conversion greater than 10% after 30 min; −: conversion less than 5% after 30 min)
same,CysM conversion,[2],+ (key: +++: conversion greater than 70% after 30 min; ++: conversion greater than 40% after 30 min; +: conversion greater than 10% after 30 min; −: conversion less than 5% after 30 min)
"O=C(O)c1ccc2[nH]nnc2c1 [5-Carboxy-1,2,3-benzotriazole]",CysK conversion,[1],++ (key: +++: conversion greater than 70% after 30 min; ++: conversion greater than 40% after 30 min; +: conversion greater than 10% after 30 min; −: conversion less than 5% after 30 min)
same,CysM conversion,[2],+ (key: +++: conversion greater than 70% after 30 min; ++: conversion greater than 40% after 30 min; +: conversion greater than 10% after 30 min; −: conversion less than 5% after 30 min)
B1,specific activity Acys (formation of cysteine using sulfide),[4],140 units/mg
B2,specific activity Acys (formation of cysteine using sulfide),[4],199 units/mg
same,specific activity AS-cys (formation of S-sulfocysteine using thiosulfate),[4]; 10 mM sodium thiosulfate,145 units/mg
